Experimental data reported in US20220389007A1, “INHIBITORS OF HUMAN IMMUNODEFICIENCY VIRUS REPLICATION” (VIIV HEALTHCARE UK (No. 5) LIMITED, priority 2019, published 2022).
pEC50: −log10 of the molar value.

Legend:
[1] = Compound cytotoxicity, XTT-based colorimetric assay; type: cell-based; settings: human; uninfected MT2 cells, day 4, XTT assay
Protocol: Compound cytotoxicity and the corresponding CC50 values were determined using the same protocol as described in the antiviral assay except that uninfected cells were used. Cytotoxicity was assessed on day 4 in uninfected MT2 cells by using a XTT (2,3-bis[2-Methoxy-4-nitro-5-sulfophenyl]-2H-tetrazolium-5-carboxyanilide inner salt)-based colorimetric assay (Sigma-Aldrich, St Louis, Mo.).

recombinant NL4-3 virus = assay: HIV cell culture assay (antiviral activity, luciferase readout); type: cell-based; settings: Human immunodeficiency virus 1, NL43, MT2, MT-2 cells infected for 4-5 days with recombinant NL4-3 virus carrying Renilla luciferase
Protocol: HIV cell culture assay—MT-2 cells, 293T cells and the proviral DNA clone of NL4-3 virus were obtained from the NIH AIDS Research and Reference Reagent Program. MT-2 cells were propagated in RPMI 1640 media supplemented with 10% heat inactivated fetal bovine serum (FBS), […]. The 293T cells were propagated in DMEM media supplemented with 10% heat inactivated FBS, […]. A recombinant NL4-3 proviral clone, in which a section of the nef gene was replaced with the Renilla luciferase gene, was used to make the reference virus used in these studies. The recombinant virus was prepared through transfection of the recombinant NL4-3 proviral clone into 293T cells using Transit-293 Transfection Reagent from Mirus Bio LLC (Madison, WI). Supernatent was harvested after 2-3 days and the amount of virus present was titered in MT-2 cells using luciferase enzyme activity as a marker by measuring luciferase enzyme activity. Luciferase was quantitated using the EnduRen Live Cell Substrate from Promega (Madison, Wis.). Antiviral activities of compounds toward the recombinant virus were quantified by measuring luciferase activity in MT-2 cells infected for 4-5 days with the recombinant virus in the presence of serial dilutions of the compound.
The 50% effective concentration (EC50) was calculated by using the exponential form of the median effect equation where (Fa)=1/[1+(ED50/drug conc.)m] (Johnson VA, Byington RT. Infectivity Assay. In Techniques in HIV Research. ed. Aldovini A, Walker BD. 71-76. New York: Stockton Press. 1990). The 50% inhibitory concentration (EC50) was calculated by using the exponential form of the median effect equation where percent inhibition=1/[1+(EC50/drug concentration)m], where m is a parameter that reflects the slope of the concentration-response curve.

SMILES	CC50 at 4 day [1]	pEC50 (recombinant NL4-3 virus)
Cc1cc(-c2ccc3c(=O)n(-c4ccc(Cl)c5c(NS(C)(=O)=O)nn(C)c45)c([C@H](Cc4cc(F)cc(F)c4)NC(=O)Cn4nc(C(F)F)c5c4C(F)(F)[C@@H]4C[C@H]54)nc3n2)nc(C(F)(F)F)n1 (atropisomer, axis not shown; (P)) [Example 18, N-((S)-1-((3P)-3-(4-chloro-1-methyl-3-(methylsulfonamido)-1H-indazol-7-yl)-7-(6-methyl-2-(trifluoromethyl)pyrimidin-4-yl)-4-oxo-3,4-dihydropyrido[2,3-d]pyrimidin-2-yl)-2-(3,5-difluorophenyl)ethyl)-2-((3bS,4aR)-3-(difluoromethyl)-5,5-difluoro-3 b,4,4a,5-tetrahydro-1H-cyclopropa[3,4]cyclopenta[1,2-c]pyrazol-1-yl)acetamide]	> 100000 pM	10.17
Cn1nc(NS(C)(=O)=O)c2c(Cl)ccc(-n3c([C@H](Cc4cc(F)cc(F)c4)NC(=O)Cn4nc(C(F)F)c5c4C(F)(F)[C@@H]4C[C@H]54)nc4nc(-c5ncc(Cl)nc5Cl)ccc4c3=O)c21 (atropisomer, axis not shown; (P)) [Example 57, N-((S)-1-((3P)-3-(4-chloro-1-methyl-3-(methylsulfonamido)-1H-indazol-7-yl)-7-(3,5-dichloropyrazin-2-yl)-4-oxo-3,4-dihydropyrido[2,3-d]pyrimidin-2-yl)-2-(3,5-difluorophenyl)ethyl)-2-((3bS,4aR)-3-(difluoromethyl)-5,5-difluoro-3b,4,4a,5-tetrahydro-1H-cyclopropa[3,4]cyclopenta[1,2-c]pyrazol-1-yl)acetamide]	> 100000 pM	10.14
Cn1nc(NS(C)(=O)=O)c2c(Cl)ccc(-n3c([C@H](Cc4cc(F)cc(F)c4)NC(=O)Cn4nc(C(F)F)c5c4C(F)(F)[C@@H]4C[C@H]54)nc4nc(-c5cccc(OC(F)(F)F)c5)ccc4c3=O)c21 (atropisomer, axis not shown; (P)) [Example 21, N-((S)-1-((3P)-3-(4-chloro-1-methyl-3-(methylsulfonamido)-1H-indazol-7-yl)-4-oxo-7-(3-(trifluoromethoxy)phenyl)-3,4-dihydropyrido[2,3-d]pyrimidin-2-yl)-2-(3,5-difluorophenyl)ethyl)-2-((3bS,4aR)-3-(difluoromethyl)-5,5-difluoro-3b,4,4a,5-tetrahydro-1H-cyclopropa[3,4]cyclopenta[1,2-c]pyrazol-1-yl)acetamide]	> 100000 pM	9.41
Cn1nc(NS(C)(=O)=O)c2c(Cl)ccc(-n3c([C@H](Cc4cc(F)cc(F)c4)NC(=O)Cn4nc(C(F)F)c5c4C(F)(F)[C@@H]4C[C@H]54)nc4nc(-c5cc(C(F)F)ccn5)ccc4c3=O)c21 (atropisomer, axis not shown; (P)) [Example 39, N-((S)-1-((3P)-3-(4-chloro-1-methyl-3-(methylsulfonamido)-1H-indazol-7-yl)-7-(4-(difluoromethyl)pyridin-2-yl)-4-oxo-3,4-dihydropyrido[2,3-d]pyrimidin-2-yl)-2-(3,5-difluorophenyl)ethyl)-2-((3bS,4aR)-3-(difluoromethyl)-5,5-difluoro-3b,4,4a,5-tetrahydro-1H-cyclopropa[3,4]cyclopenta[1,2-c]pyrazol-1-yl)acetamide]	> 100000 pM	10.34
Cn1nc(NS(C)(=O)=O)c2c(Cl)ccc(-n3c([C@H](Cc4cc(F)cc(F)c4)NC(=O)Cn4nc(C(F)F)c5c4C(F)(F)[C@@H]4C[C@H]54)nc4nc(-c5ccc(OC(F)F)cc5)ccc4c3=O)c21 (atropisomer, axis not shown; (P)) [Example 27, N-((S)-1-((3P)-3-(4-chloro-1-methyl-3-(methylsulfonamido)-1H-indazol-7-yl)-7-(4-(difluoromethoxy)phenyl)-4-oxo-3,4-dihydropyrido[2,3-d]pyrimidin-2-yl)-2-(3,5-difluorophenyl)ethyl)-2-((3bS,4aR)-3-(difluoromethyl)-5,5-difluoro-3b,4,4a,5-tetrahydro-1H-cyclopropa[3,4]cyclopenta[1,2-c]pyrazol-1-yl)acetamide]	> 100000 pM	9.47
Cn1nc(NS(C)(=O)=O)c2c(Cl)ccc(-n3c([C@H](Cc4cc(F)cc(F)c4)NC(=O)Cn4nc(C(F)F)c5c4C(F)(F)[C@@H]4C[C@H]54)nc4nc(-n5ccc(C(F)(F)F)n5)ccc4c3=O)c21 (atropisomer, axis not shown; (P)) [Example 65, N-((S)-1-((3P)-3-(4-chloro-1-methyl-3-(methylsulfonamido)-1H-indazol-7-yl)-4-oxo-7-(3-(trifluoromethyl)-1H-pyrazol-1-yl)-3,4-dihydropyrido[2,3-d]pyrimidin-2-yl)-2-(3,5-difluorophenyl)ethyl)-2-((3bS,4aR)-3-(difluoromethyl)-5,5-difluoro-3b,4,4a,5-tetrahydro-1H-cyclopropa[3,4]cyclopenta[1,2-c]pyrazol-1-yl)acetamide]	> 100000 pM	10.21
Cn1nc(C(F)(F)F)cc1-c1ccc2c(=O)n(-c3ccc(Cl)c4c(NS(C)(=O)=O)nn(C)c34)c([C@H](Cc3cc(F)cc(F)c3)NC(=O)Cn3nc(C(F)F)c4c3C(F)(F)[C@@H]3C[C@H]43)nc2n1 (atropisomer, axis not shown; (P)) [Example 83, N-((S)-1-((3P)-3-(4-chloro-1-methyl-3-(methylsulfonamido)-1H-indazol-7-yl)-7-(1-methyl-3-(trifluoromethyl)-1H-pyrazol-5-yl)-4-oxo-3,4-dihydropyrido[2,3-d]pyrimidin-2-yl)-2-(3,5-difluorophenyl)ethyl)-2-((3bS,4aR)-3-(difluoromethyl)-5,5-difluoro-3b,4,4a,5-tetrahydro-1H-cyclopropa[3,4]cyclopenta[1,2-c]pyrazol-1-yl)acetamide]	> 100000 pM	10.15
Cc1nc2ccc(-c3ccc4c(=O)n(-c5ccc(Cl)c6c(NS(C)(=O)=O)nn(C)c56)c([C@H](Cc5cc(F)cc(F)c5)NC(=O)Cn5nc(C(F)F)c6c5C(F)(F)[C@@H]5C[C@H]65)nc4n3)cc2s1 (atropisomer, axis not shown; (P)) [Example 67, N-((S)-1-((3P)-3-(4-chloro-1-methyl-3-(methylsulfonamido)-1H-indazol-7-yl)-7-(2-methylbenzo[d]thiazol-6-yl)-4-oxo-3,4-dihydropyrido[2,3-d]pyrimidin-2-yl)-2-(3,5-difluorophenyl)ethyl)-2-((3bS,4aR)-3-(difluoromethyl)-5,5-difluoro-3b,4,4a,5-tetrahydro-1H-cyclopropa[3,4]cyclopenta[1,2-c]pyrazol-1-yl)acetamide]	> 100000 pM	9.26
COc1cncc(-c2ccc3c(=O)n(-c4ccc(Cl)c5c(NS(C)(=O)=O)nn(C)c45)c([C@H](Cc4cc(F)cc(F)c4)NC(=O)Cn4nc(C(F)F)c5c4C(F)(F)[C@@H]4C[C@H]54)nc3n2)c1 (atropisomer, axis not shown; (P)) [Example 51, N-((S)-1-((3P)-3-(4-chloro-1-methyl-3-(methylsulfonamido)-1H-indazol-7-yl)-7-(5-methoxypyridin-3-yl)-4-oxo-3,4-dihydropyrido[2,3-d]pyrimidin-2-yl)-2-(3,5-difluorophenyl)ethyl)-2-((3bS,4aR)-3-(difluoromethyl)-5,5-difluoro-3b,4,4a,5-tetrahydro-1H-cyclopropa[3,4]cyclopenta[1,2-c]pyrazol-1-yl)acetamide]	> 100000 pM	10.07
Cc1cc(-c2ccc3c(=O)n(-c4ccc(Cl)c5c(NS(C)(=O)=O)nn(C)c45)c([C@H](Cc4cc(F)cc(F)c4)NC(=O)Cn4nc(C(F)F)c5c4C(F)(F)[C@@H]4C[C@H]54)nc3n2)n[nH]1 (atropisomer, axis not shown; (P)) [Example 98, N-((S)-1-((3P)-3-(4-chloro-1-methyl-3-(methylsulfonamido)-1H-indazol-7-yl)-7-(5-methyl-1H-pyrazol-3-yl)-4-oxo-3,4-dihydropyrido[2,3-d]pyrimidin-2-yl)-2-(3,5-difluorophenyl)ethyl)-2-((3bS,4aR)-3-(difluoromethyl)-5,5-difluoro-3b,4,4a,5-tetrahydro-1H-cyclopropa[3,4]cyclopenta[1,2-c]pyrazol-1-yl)acetamide]	> 100000 pM	9.70
